Measured values from patent US20190211020A1 (Agency for Science, Technology and Research, priority 2012, published 2019).
Read-outs that look alike come from different tables or passages of the source.

Tests used:
[1] = test system: K562 cells (myelogenous leukemia) over-expressing eIF4E; test: Cell cytotoxicity assay (CellTiter-Glo), K562; type: cell-based; details: for IC50: Homo sapiens, cell viability
Method: (§1) Cancer cell lines, MV-4-11 (leukemia), P116.c139 (acute T cell leukemia) and D1.1 (acute T cell leukemia), were purchased from ATCC and cultured according to supplier's recommendations. K562 cells (myelogenous leukemia) over-expressing eIF4E, were also used for the cytotoxicity assay. For cells treated for 48 hours, 5000 cells were seeded in 70 μl of growth medium in black, flat-bottom 96-well plate. For cells treated for six days, 1000 cells were seeded in 70 μl of growth medium in black, flat-bottom 96-well plate. […] 50 μl of the diluted compounds was added to the cells and incubated at 37° C. in 5% CO2. After 48 hours or six days treatment, cell viability was determined by CellTiter-Glo Luminescent Cell Viability Assay (Promega, Madison, Wis.). 120 μl of the reagent was added to the cells and luminescence was measured using Tecan Safire Reader. Data was analysed with Graphpad Prism software and the figures represented indicate the half maximal inhibitory concentration (IC50). Error bars denote standard deviation (SD).

[2] = test system: MV-4-11 (leukemia); test: Cell cytotoxicity assay (CellTiter-Glo), MV-4-11; type: cell-based; details: Homo sapiens, cell viability
Method: as §1

[3] = test system: D1.1 (acute T cell leukemia); test: Cell cytotoxicity assay (CellTiter-Glo), D1.1; type: cell-based; details: T-cell, cell viability
Method: as §1

[4] = test system: P116.c139 (acute T cell leukemia); test: Cell cytotoxicity assay (CellTiter-Glo), P116.c139; type: cell-based; details: T-cell, cell viability
Method: as §1

[5] = test system: eIF4G levels in brain sections from Nlgn3 knock-out mice; test: Immunoblot of eIF4G in brain slices of Nlgn3 knock-out mice; set-up: species or system mouse; details: 40 μM CGP57380 or 50 nM ETC7168
Method: (§2) For biochemical analyses mice were sacrificed by CO2 inhalation, the cerebellum dissected and rapidly placed in a vibratome chamber and sectioned at 300 μm in cold oxygenated aCSF (in mM: 125 NaCl, 2.5 KCl, 1 MgCl2, 2 CaCl2, 1.25 NaH2PO4, 20 Glucose, 26 NaHCO3, 95% O2/5% CO2). Slices obtained were maintained at 33° C. in oxygenated aCSF and treated with 40 μM CGP57380 or 50 nM ETC7168 for 45 mins and tissues were subsequently snap frozen in liquid nitrogen. Tissues were lysed in 25 mM Tris-HCl, 150 mM NaCl, 1% Triton, 0.2% SDS, 5 mM EDTA, 2 mM DTT, 1 mM NaF, 1 mM Na3VO4 containing protease inhibitor cocktail. The soluble fractions were analyzed by immunoblotting with primary antibodies for 24 hrs at 4° C. followed by detection with secondary antibodies for enhanced chemoluminescent detection. Impact of MNK inhibitors on autism-related behavior was tested in a knock-out mouse model for autism. Nlgn3 knock-out mouse model a human mutation identified in patients with autism^73-74. Compounds were applied in DMSO using intraperitoneal injection in adult male mice (2-4 months of age). Two injections were performed, the first 30 h and a second one 5 h before testing. Behavioral testing was performed using a well-accepted test for autism that consists of quantitative analysis of ultrasonic vocalizations emitted by male mice exposed to females in estrous^75. The apparatus consisted of an arena (40 cm×20 cm) surrounded by 30-cm-high walls made of grey plastic and equipped with a microphone and a video camera. Prior to testing, the estrous cycle of each female mouse was assessed and only females in estrous were kept for testing. Male mice were acclimatized for 3 min in the chamber. Subsequently a female in estrous was introduced in the arena, and ultrasonic vocalizations were recorded for 3 min using the Avisoft system (Avisoft Bioacoustics) with a frequency bandwidth of 30 kHz to 100 kHz. The number and length of ultrasonic vocalizations were quantified. All animal experiments were approved by the cantonal veterinary office Basel-Stadt, Switzerland.

[6] = test system: Nlgn3 knock-out mice; test: Ultrasonic vocalization assay in Nlgn3 knock-out mice (autism model); type: in vivo, mouse; details: 50 microgram/kg intraperitoneal, 30 h and 5 h before testing
Method: as §2, with “Impact of MNK inhibitors on autism-related behavior was tested in a knock-out mouse model for autism. Nlgn3 knock-out mouse model a human mutation identified in patients with autism^73-74. Compounds were applied in DMSO using intraperitoneal injection in adult male mice (2-4 months of age). Two injections were performed, the first 30 h and a second one 5 h before testing.” left out, “The apparatus consisted of an arena (40 cm×20 cm) surrounded by 30-cm-high walls made of grey plastic and equipped with a microphone and a video camera.” left out, “Male mice were acclimatized for 3 min in the chamber.” left out, “All animal experiments were approved by the cantonal veterinary office Basel-Stadt, Switzerland.” left out

N#Cc1ccc(-c2cnc3ccc(-c4ccc(C(=O)N5CCOCC5)cc4)nn23)cc1 [Example 62, 4-(6-(4-(morpholine-4-carbonyl)phenyl)imidazo[1,2-b]pyridazin-3-yl)benzonitrile]
IC50 ([1]; K562, 144 h, 6 days, read-out: IC50 after 6 days of treatment, K562): 3100 nM | IC50 ([1]; K562, 48 hours, read-out: IC50 after 48 hours of treatment, K562): 7500 nM | change of IC50 when treatment duration was extended from 48 hours to 6 days, K562 ([1]; K562 cells over-expressing eIF4E): reduced by more than half | IC50 ([2]; MV4-11, 144 h, 6 days, read-out: IC50 after 6 days of treatment, MV-4-11): 200 nM | IC50 ([2]; MV4-11, 48 hours, read-out: IC50 after 48 hours of treatment, MV-4-11): 800 nM | IC50 ([3]; 144 h, 6 days, read-out: IC50 after 6 days of treatment, D1.1): 1700 nM | IC50 ([3]; 48 hours, read-out: IC50 after 48 hours of treatment, D1.1): 1600 nM | IC50 ([4]; 144 h, 6 days, read-out: IC50 after 6 days of treatment, P116.c139): 300 nM | IC50 ([4]; 48 hours, read-out: IC50 after 48 hours of treatment, P116.c139): 800 nM | eIF4G levels in brain sections from Nlgn3 knock-out mice [5]: elevated eIF4G levels | eIF4G levels in brain sections from Nlgn3 knock-out mice ([5]; listed as ECT7168): elevation in eIF4G levels | ultrasonic vocalizations of Nlgn3 knock-out male mice (autism-related behavior) [6]: improves autism-relevant behavior | ultrasonic vocalizations of Nlgn3 knock-out male mice (autism-related behavior) ([6]; listed as ETC7168): robust elevation of ultrasonic vocalizations
